Data as given in patent publication US20110230477A1, “COMPOUNDS, PHARMACEUTICAL COMPOSITION AND METHODS FOR USE IN TREATING METABOLIC DISORDERS” (Euroscreen S.A., priority 2008, published 2011).

Target: T1, human GPR43 receptor (hGPR43) (Homo sapiens, UniProt O15552)
T1 construct: expressed in transfected cells
T1 sequence (O15552 1-330): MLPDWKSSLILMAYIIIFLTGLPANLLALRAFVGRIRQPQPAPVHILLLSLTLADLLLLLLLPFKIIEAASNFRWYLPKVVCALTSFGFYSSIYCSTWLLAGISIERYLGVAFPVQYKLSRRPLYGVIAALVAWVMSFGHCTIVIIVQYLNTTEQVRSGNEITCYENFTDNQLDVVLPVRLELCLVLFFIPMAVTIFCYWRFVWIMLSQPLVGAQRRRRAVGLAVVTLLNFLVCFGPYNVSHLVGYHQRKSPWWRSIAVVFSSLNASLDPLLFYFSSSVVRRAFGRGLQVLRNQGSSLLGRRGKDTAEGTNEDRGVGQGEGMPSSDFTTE
Assay: GTPγS binding assay (SPA method)
Type: biochemical
Details: membranes expressing hGPR43; assay performed in the presence of SCFA; read-out: EC50 (nM) in GTPγ35S assay
From the text: The following assay can be used for determination of GPR43 activation. When a GPCR is in its active state, either as a result of ligand binding or constitutive activation, the receptor couples to a G protein and stimulates the release of GDP and subsequent binding of GTP to the G protein. The alpha subunit of the G protein-receptor complex acts as a GTPase and slowly hydrolyses the GTP to GDP, at which point the receptor normally is deactivated. Activated receptors continue to exchange GDP for GTP. […] The assay uses the ability of GPCR to stimulate [^35S]GTPγS binding to membranes expressing the relevant receptors. The assay can, therefore, be used in the direct identification method to screen candidate compounds to endogenous or not endogenous GPCR.
Membrane extracts were prepared from cells expressing the human GPR43 receptor (hGPR43) as follows: the medium was aspirated and the cells were scraped from the plates in Ca^++ and Mg^++-free Phosphate-buffered saline (PBS). The cells were then centrifuged for 3 min at 1500 g and the pellets were resuspended in buffer A (15 mM Tris-HCl pH 7.5, 2 mM MgCl2, 0.3 mM EDTA, 1 mM EGTA) and homogenized in a glass homogenizer. […] Protein content was assayed by the Folin method.
The assay was performed in the presence of SCFA, and was used to determine the activity of the compounds of the invention.
The [^35S]GTPγS assay was incubated in 20 mM HEPES pH7.4, 100 mM NaCl, 10 μg/ml saponin, 30 mM of MgCl2, 10 μM of GDP, 5 μg membrane-expressing hGPR43, 250 μg of wheatgerm agglutinin beads (Amersham, ref: RPNQ001), a range concentration of compounds (from 30 μM to 1 nM) in a final volume of 100 μl for 30 min at room temperature. The SCFA propionate was used at 1 mM final concentration as positive control. The plates were then centrifuged for 10 minutes at 2000 rpm, incubated for 2 hours at room temperature and counted for 1 min in a scintillation counter (TopCount, PerkinElmer).

Compound | EC50 [nM]
O=C(O)C[C@@H](Cc1ccccc1)C(=O)Nc1cc(-c2cccc(C(F)(F)F)c2)n[nH]1 [Compound 203, (R)-3-benzyl-4-oxo-4-((3-(3-(trifluoromethyl)phenyl)-1H-pyrazol-5-yl)amino)butanoic acid] | 1780
CN(C(=O)[C@H]1CC=CC[C@H]1C(=O)O)c1nc(-c2ccccc2Cl)cs1 (relative stereo) [Compound 100, cis-6-((4-(2-chlorophenyl)thiazol-2-yl)(methyl)carbamoyl)cyclohex-3-enecarboxylic acid] | 142
CN1CCOc2cc(-c3ccccc3-c3csc(N(C(=O)[C@@H](CC(=O)O)CC4CCCC4)C4CC4)n3)cnc21 [Compound 194, (R)-3-(cyclopentylmethyl)-4-(cyclopropyl(4-(2-(4-methyl-3,4-dihydro-2H-pyrido[3,2-b][1,4]oxazin-7-yl)phenyl)thiazol-2-yl)amino)-4-oxobutanoic acid] | 30
CN(C(=O)[C@@H](CC(=O)O)Cc1ccccc1)c1nc(-c2ccccc2-c2cnc3c(ccn3C)c2)cs1 [Compound 217, (R)-3-benzyl-4-(methyl(4-(2-(1-methyl-1H-pyrrolo[2,3-b]pyridin-5-yl)phenyl)thiazol-2-yl)amino)-4-oxobutanoic acid] | 126
CN(C(=O)C(CC(=O)O)CC1CCCCC1)c1nc(-c2ccccc2Cl)cs1 (centres unmarked) [Compound 103, 4-((4-(2-chlorophenyl)thiazol-2-yl)(methyl)amino)-3-(cyclohexylmethyl)-4-oxobutanoic acid] | 137
CN(C(=O)[C@@H](CC(=O)O)CC1CCCCC1)c1nc(-c2ccccc2Cl)cs1 [Compound 89, (R)-4-((4-(2-chlorophenyl)thiazol-2-yl)(methyl)amino)-3-(cyclohexylmethyl)-4-oxobutanoic acid] | 37
O=C(O)C[C@@H](C(=O)Nc1nc(-c2ccccc2Cl)cs1)c1ccccc1 [Compound 92, (R)-4-(4-(2-chlorophenyl)thiazol-2-ylamino)-4-oxo-3-phenylbutanoic] | 249
CN(C(=O)[C@@H](CC(=O)O)Cc1ccccc1)c1nc(-c2ccccc2-c2ccc(N3CCCC3)nc2)cs1 [Compound 131, (R)-1-(5-(2-(2-(2-benzyl-3-carboxy-N-methylpropanamido)thiazol-4-yl)phenyl)pyridin-2-yl)pyrrolidin-1-ium 2,2,2-trifluoroacetate] | 96
CC(C)C[C@H](CC(=O)O)C(=O)Nc1nc(-c2ccccc2Cl)cs1 [Compound 19, (R)-3-(4-(2-chlorophenyl)thiazol-2-ylcarbamoyl)-5-methylhexanoic acid] | 322
O=C(O)C[C@@H](Cc1ccccc1)C(=O)Nc1ccc(-c2ccccc2Cl)cn1 [Compound 15, (R)-3-benzyl-4-(5-(2-chlorophenyl)pyridin-2-ylamino)-4-oxobutanoic acid] | 426
Cc1nc(CC(CC(=O)O)C(=O)N(C)c2nc(-c3ccccc3Cl)cs2)cs1 (centres unmarked) [Compound 209, 4-((4-(2-chlorophenyl)thiazol-2-yl)(methyl)amino)-3-((2-methylthiazol-4-yl)methyl)-4-oxobutanoic acid] | 2470
O=C(O)C[C@@H](Cc1ccccc1)C(=O)Nc1cnc(-c2ccccc2Cl)cn1 [Compound 197, (R)-3-benzyl-4-((5-(2-chlorophenyl)pyrazin-2-yl)amino)-4-oxobutanoic acid] | 1910
CN(C(=O)[C@@H](CC(=O)O)Cc1ccccc1)c1nc(-c2ccccc2-c2ccc(OCc3ccccc3)nc2)cs1 [Compound 158, (R)-3-benzyl-4-((4-(2-(6-(benzyloxy)pyridin-3-yl)phenyl)thiazol-2-yl)(methyl)amino)-4-oxobutanoic acid] | 49
COc1ccc(-c2ccc(Cl)c(-c3csc(N(C)C(=O)[C@@H](CC(=O)O)Cc4ccccc4)n3)c2)cn1 [Compound 177, (R)-3-benzyl-4-((4-(2-chloro-5-(6-methoxypyridin-3-yl)phenyl)thiazol-2-yl)(methyl)amino)-4-oxobutanoic acid] | 127
O=C(O)C[C@@H](Cc1ccccc1)C(=O)Nc1nc(-c2cc(Cl)ccc2Cl)cs1 [Compound 123, (R)-3-benzyl-4-((4-(2,5-dichlorophenyl)thiazol-2-yl)amino)-4-oxobutanoic acid] | 134
COc1ccc(CC(CC(=O)O)C(=O)N(C)c2nc(-c3ccccc3Cl)cs2)cc1 (centres unmarked) [Compound 99, 4-((4-(2-chlorophenyl)thiazol-2-yl)(methyl)amino)-3-(4-methoxybenzyl)-4-oxobutanoic acid] | 567
CN(C(=O)[C@@H](CC(=O)O)Cc1ccccc1)c1nc(-c2ccccc2-c2ccc(F)nc2)cs1 [Compound 119, (R)-3-benzyl-4-((4-(2-(6-fluoropyridin-3-yl)phenyl)thiazol-2-yl)(methyl)amino)-4-oxobutanoic acid] | 421
Cc1ccc(-c2csc(NC(=O)[C@@H](CC(=O)O)Cc3ccccc3)n2)o1 [Compound 202, (R)-3-benzyl-4-((4-(5-methylfuran-2-yl)thiazol-2-yl)amino)-4-oxobutanoic acid] | 1510
CN(C)c1ccc(-c2ccccc2-c2csc(N(C(=O)[C@@H](CC(=O)O)CC3CCCC3)C3CC3)n2)cn1 [Compound 218, (R)-3-(cyclopentylmethyl)-4-(cyclopropyl(4-(2-(6-(dimethylamino)pyridin-3-yl)phenyl)thiazol-2-yl)amino)-4-oxobutanoic acid] | 32
CN(C(=O)[C@@H](CC(=O)O)Cc1ccccc1)c1nc(-c2ccccc2-c2ccc(OC3CCOCC3)nc2)cs1 [Compound 141, (R)-3-benzyl-4-(methyl(4-(2-(6-((tetrahydro-2H-pyran-4-yl)oxy)pyridin-3-yl)phenyl)thiazol-2-yl)amino)-4-oxobutanoic acid] | 996
CN(C(=O)[C@@H](CC(=O)O)CC1CCCO1)c1nc(-c2ccccc2Cl)cs1 (stereo partly drawn) [Compound 154, (3R)-4-((4-(2-chlorophenyl)thiazol-2-yl)(methyl)amino)-4-oxo-3-((tetrahydrofuran-2-yl)methyl)butanoic acid] | 832
CC(C)[C@H](CC(=O)O)C(=O)N(C)c1nc(-c2ccccc2Cl)cs1 [Compound 94, (S)-3-((4-(2-chlorophenyl)thiazol-2-yl)(methyl)carbamoyl)-4-methylpentanoic acid] | 200
CN(C(=O)C(CC(=O)O)CC1CC1)c1nc(-c2ccccc2Cl)cs1 (centres unmarked) [Compound 113, 4-((4-(2-chlorophenyl)thiazol-2-yl)(methyl)amino)-3-(cyclopropylmethyl)-4-oxobutanoic acid] | 226
CN(C(=O)[C@@H](CC(=O)O)Cc1ccccc1)c1nc(-c2ccccc2-c2cnc3c(c2)CCC(=O)N3C)cs1 [Compound 216, (R)-3-benzyl-4-(methyl(4-(2-(8-methyl-7-oxo-5,6,7,8-tetrahydro-1,8-naphthyridin-3-yl)phenyl)thiazol-2-yl)amino)-4-oxobutanoic acid] | 341
CCCC[C@H](CC(=O)O)C(=O)Nc1nc(-c2ccccc2Cl)cs1 [Compound 16, (R)-3-(4-(2-chlorophenyl)thiazol-2-ylcarbamoyl)heptanoic acid] | 389
CN(C(=O)[C@@H](CC(=O)O)CC1CCOCC1)c1nc(-c2cc(Cl)ccc2Cl)cs1 [Compound 168, (R)-4-((4-(2,5-dichlorophenyl)thiazol-2-yl)(methyl)amino)-4-oxo-3-((tetrahydro-2H-pyran-4-yl)methyl)butanoic acid] | 43
COc1ccc(-c2ccccc2-c2csc(N(C)C(=O)[C@@H](CC(=O)O)Cc3ccccc3)n2)cc1 [Compound 129, (R)-3-benzyl-4-((4-(4′-methoxy-[1,1′-biphenyl]-2-yl)thiazol-2-yl)(methyl)amino)-4-oxobutanoic acid] | 858
COC(=O)CN(C(=O)[C@@H](CC(=O)O)Cc1ccccc1)c1nc(-c2ccccc2Cl)cs1 [Compound 23, (R)-3-benzyl-4-((4-(2-chlorophenyl)thiazol-2-yl)(2-methoxy-2-oxoethyl)amino)-4-oxobutanoic acid] | 327
O=C(Nc1nc(-c2ccccc2Cl)cs1)[C@H]1CC=CC[C@H]1C(=O)O (relative stereo) [Compound 98, cis-6-(4-(2-chlorophenyl)thiazol-2-ylcarbamoyl)cyclohex-3-enecarboxylic acid] | 113
